Reference: ChEMBL document CHEMBL4414630, “Cyclobutastellettolides A and B, C19 Norterpenoids from a Stelletta sp. Marine Sponge” (J Nat Prod, 2019)

Experiments:
DLD-1 = experiment: Cytotoxicity against human DLD1 cells assessed as inhibition of cell viability incubated for 24 hrs by MTS assay; type: cell-based; conditions: DLD-1, 24 h
Peritoneal macrophage [1] = experiment: Induction of ROS generation in BALB/c mouse peritoneal macrophages at 10 uM incubated for 1 hr by H2DCF-DA staining based fluorescence analysis relative to control; type: functional
Peritoneal macrophage [2] = experiment: Induction of ROS generation in BALB/c mouse peritoneal macrophages at 1 uM incubated for 1 hr by H2DCF-DA staining based fluorescence analysis relative to control; type: functional
HT-29 = experiment: Cytotoxicity against human HT-29 cells assessed as inhibition of cell viability incubated for 24 hrs by MTS assay; type: cell-based; conditions: HT-29, 24 h
N2a = experiment: Cytotoxicity against mouse Neuro2a cells assessed as inhibition of cell viability incubated for 24 hrs by MTT assay; type: cell-based

Structure (SMILES) | IC50 (DLD-1) [µM] | Activity (Peritoneal macrophage [1]) [%] | Activity (Peritoneal macrophage [2]) [%] | IC50 (HT-29) [µM] | IC50 (N2a) [µM]
CC1(C)C(=O)CC[C@@]2(C)[C@H]1CC[C@]1(C)C(=O)[C@@]3(C)OC(=O)C[C@@]213 | > 40 | 93 | 55 | > 40 | > 40
CC(=O)O[C@H]1CC[C@@]2(C)[C@@H](CC[C@]3(C)C(=O)[C@@]4(C)OC(=O)C[C@@]234)C1(C)C | > 40 | 90 | 73 | > 40 | > 40
